Source: patent publication US4476114A, “Iron-selenium preparation” (Orion-yhtyma Oy, priority 1982, dated 1984)
“And” between values parts separate entries of the source, which are not always exact repeats. Equal entries are not always repeated.

What was measured:
[1] = test system: glutathione peroxidase; assay: Serum glutathione peroxidase activity in newborn piglets (Table 2); assay type: in vivo
Procedure: (§1) Six newborn piglets weighing about 1 kg were given an intramuscular dose of 2 ml of the new iron-selenium preparation, each ml containing 100 mg Fe^+3 as ferric dextran and 0.15 mg Se^+4 as sodium selenite. […] This was in spite of the fact that the animals were fed on milk from a sow kept on a low-selenium diet during this period. Five similar piglets, given the same diet, formed the control group. The control animals were given 200 mg Fe^+3 ferric dextran intramuscularly at the same time as injection of the test group. Four weeks later, mean selenium levels of 55.4 ng/ml and a mean glutathione perioxidase activity of 710.8 IU/l were found in their serum. The differences between the mean values of the test group and the control group were statistically significant, the glutathione peroxidase difference at the 99% confidence interval and the Se difference at the 95% interval (Wilcoxson-Mann-Whitney rank sum test).
(§2) 0.3 mg/Se/kg together with 200 mg Fe^+3

[2] = Serum selenium level in newborn piglets (Table 2); assay type: in vivo
Procedure: as §1, §2

[3] = test system: erythrocyte count; assay: Increase in erythrocyte count in piglets, electronic counter; assay type: in vivo; conditions: eight days after injection of 200 mg Fe^+3 as ferric dextran, with or without Se^+4 0.15 mg/ml (2 ml, s.c. in test group); difference significant at 95% confidence interval
Procedure: (§3) In another study, two sows were kept on a low-selenium diet during the last four weeks of pregnancy and during lactation. The 25 piglets born alive were divided at the age of three days into two groups (12+13), both groups containing piglets from both sows. Blood samples were taken from all piglets for determination of selenium and glutathione peroxidase values and for blood cell counts. The test group (13 piglets) were given a subcutaneous injection of 200 mg (2 ml) Fe^+3 as ferric dextran, to which sodium selenite had been added to give a Se^+4 content of 0.15 mg/ml. The control group (12) received 200 mg Fe^+3 as ferric dextran without Se^+4. One piglet in the control group later died. After eight days, blood samples were taken from all piglets. […] The difference was statistically significant at the 95% confidence interval using the non-parametric Wilcoxson-Mann-Whitney rank sum test. […] This is an important finding that will play a major role in both human and veterinary medicine. The use of selenium in combination with iron is likely to increase considerably. […] Selenium is probably stored as an iron-selenium complex, which explains the unexpected sufficiency of a single dose given at an early stage up to a weight of about 8 . . . 10 kg.

[4] = Serum selenium maintenance / selenium sufficiency in piglets injected at three days; assay type: in vivo; conditions: in words; 200 mg Fe^+3 per animal; 3 weeks
Procedure: as §3

[5] = Growth (weight increase) of piglets injected at three days; assay type: in vivo; conditions: in words; 200 mg Fe^+3 per animal; 3 weeks
Procedure: as §3

[6] = test system: glutathione peroxidase; assay: Serum glutathione peroxidase (gSH-Px) activity in selenium-deficient pigs (Table 1); assay type: in vivo
Procedure: (§4) The new type of preparation containing sodium selenite and ferric dextran was administered intramuscularly to three pigs, weight 15 . . . 25 kg, suffering from selenium deficiency. Another three pigs suffering from selenium deficiency were given the same dose of sodium selenite. Serum selenium content and glutathione peroxidase enzyme activity were determined as a measure of the bioactivity of selenium in the organism. […] All the pigs were on the same diet throughout the test period.
(§5) Animals 1, 2 and 3 received 0.06 mg Se per kg body weight intramuscularly
(§6) Animals 4, 5 and 6 received 0.06 mg Se per kg body weight intramuscularly
(§7) as sodium selenite combined with ferric dextran, 200 mg Fe per dose.

[7] = Serum selenium content in selenium-deficient pigs (Table 1); assay type: in vivo; conditions: 0.06 mg Se/kg i.m.
Procedure: as §4, §5, §6, §7

[8] = in words; background statement; cited from earlier work
[9] = in words, four weeks after treatment
[10] = mean of five control piglets, serum, four weeks later, 200 mg Fe^+3 ferric dextran i.m.

Compound | serum level of glutathione peroxidase four weeks later [1, 9] | mean glutathione peroxidase activity, control group [1, 10] | serum level of selenium four weeks later [2, 9] | mean selenium level, control group [2, 10] | mean increase in the erythrocyte count [3] | selenium status of control animals [4] | weight increase of control animals [5] | gSH-Px, 0-sample ([6]; individual pigs, 0-sample (before dosing), 0.06 mg Se/kg i.m., with ferric dextran 200 mg Fe per dose for animals 4-6) | gSH-Px at day 8 ([6]; individual pigs, day 8, 0.06 mg Se/kg i.m., with ferric dextran 200 mg Fe per dose for animals 4-6) | gSH-Px at day 15 ([6]; individual pigs, day 15, 0.06 mg Se/kg i.m., with ferric dextran 200 mg Fe per dose for animals 4-6) | Mean gSH-Px, 0-sample ([6]; mean of 3 pigs, 0-sample (before dosing), 0.06 mg Se/kg i.m.) | Mean gSH-Px at day 8 ([6]; mean of 3 pigs, day 8, 0.06 mg Se/kg i.m.) | Mean gSH-Px at day 15 ([6]; mean of 3 pigs, day 15, 0.06 mg Se/kg i.m.) | serum selenium level over 15 days ([7]; in words) | Mean Se, 0-sample ([7]; mean of 3 pigs, serum, 0-sample (before dosing)) | Mean Se at day 8 ([7]; mean of 3 pigs, serum, day 8, 11520 min) | Mean Se at day 15 ([7]; mean of 3 pigs, serum, day 15, 21600 min) | elimination of selenium from the organism [8] | half-life of selenium in the organism [8]
ferric dextran | indicate a deficiency state | 710.8 IU/l | indicate a deficiency state | 55.4 ng/mL | 1.41±0.30 10^12 /l | severe selenium deficiency | retardation in weight increase | – | – | – | – | – | – | – | – | – | – | – | –
O=[Se]([O-])[O-].[Na+].[Na+] [sodium selenite] | – | – | – | – | – | – | – | 373 IU/l and 298 IU/l and 325 IU/l | 1065 IU/l and 796 IU/l and 926 IU/l | 632 IU/l and 437 IU/l and 484 IU/l | 332 IU/l | 926 IU/l | 518 IU/l | remained elevated for only 8 days | 23 ng/mL | 49 ng/mL | 35 ng/mL | rapidly eliminated | short
